# Measured values from ChEMBL document CHEMBL4613326 (J Med Chem, 2020).
# Active and inactive are the calls of the source. The rule behind the calls is not given here.
# Legend:
# [1] = target: T1, Autotaxin (Homo sapiens, UniProt Q13822); test: Inhibition of human ATX pre-incubated for 45 mins before fluorogenic substrate-3 addition and measured every minute for 30 mins by fluorescence based assay
# [2] = system: Mus musculus; test: (§1) Protection against lung fibrosis in C57BL/6 mouse model of bleomycin sulfate-induced idiopathic pulmonary fibrosis assessed as induction of body weight recovery at 60 mg/kg, po dosed once daily for 31 days followed by bleomycin sulfate challenge on day 3; format: functional, organism-based
# [3] = system: Mus musculus; test: Protection against lung fibrosis in C57BL/6 mouse model of bleomycin sulfate-induced idiopathic pulmonary fibrosis assessed as induction of body weight recovery at 20 mg/kg, po dosed once daily for 31 days followed by bleomycin sulfate challenge on day 3; format: functional, organism-based
# [4] = system: Mus musculus; test: (§2) Ex-vivo inhibition of ATX lysoPLD activity in lung homogenate isolated from C57BL/6 mouse model of bleomycin sulfate-induced idiopathic pulmonary fibrosis assessed […] for artificial substrate FS-3 cleavage at 20 mg/kg, po dosed once daily for 31 days followed by bleomycin sulfate challenge on day 3 by fluorescence based assay; format: functional
# [5] = system: Mus musculus; test: as §2, with “60” for “20”; format: functional
# [6] = system: Mus musculus; test: as §2, with “20 to 60” for “20”; format: functional, organism-based
# [7] = system: Mus musculus; test: (§3) Protection against lung fibrosis in C57BL/6 mouse model of bleomycin sulfate-induced idiopathic pulmonary fibrosis assessed as induction of improvement in histopathological changes by measuring modified Ashcroft score level at 20 mg/kg, po dosed once daily for 31 days followed by bleomycin sulfate challenge on day 3 by hematoxylin and eosin staining based assay (reference value: 6.28); format: functional
# [8] = system: Mus musculus; test: as §3, with “lung texture” for “histopathological changes by measuring modified Ashcroft score level”, “assay” for “assay (reference value: 6.28)”; format: functional, organism-based
# [9] = system: Mus musculus; test: as §3, with “60” for “20”; format: functional
# [10] = system: Mus musculus; test: as §3, with “lung texture” for “histopathological changes by measuring modified Ashcroft score level”, “20 to 60” for “20”, “assay” for “assay (reference value: 6.28)”; format: functional, organism-based
# [11] = system: Mus musculus; test: as §1, with “induction of improvement in lung texture at 60” for “induction of body weight recovery at 60”, “day 3 by hematoxylin and eosin staining based assay” for “day 3”; format: functional, organism-based
# [12] = system: Mus musculus; test: as §3, with “lung texture” for “histopathological changes”, “60” for “20”, “Masson” for “hematoxylin and eosin”, “assay” for “assay (reference value: 6.28)”; format: functional
# [13] = target: T1, Autotaxin
# Description: Inhibition of human ATX by LPC choline release assay
Structure (SMILES),IC50 [1] [nM],other results
CCn1cc(C(=O)N/N=C(\C)c2ccc(F)cc2)c2cc(-c3nc(CN4CCC(O)CC4)cs3)ccc21,69.4,–
CCn1cc(NC(=O)O[C@H](C)c2ccccc2Cl)c2cc(-c3nc(CN4CCC[C@H]4CO)cs3)ccc21,199,–
Cn1cc(C(=O)N/N=C/c2ccc(F)cc2)c2cc(-c3nc(CN4CCOCC4)cs3)ccc21,2870,–
CCn1cc(C(=O)N/N=C/c2ccc3c(c2)OCO3)c2cc(-c3nc(CN4CCC[C@H]4CO)cs3)ccc21,610,–
CN1CCN(Cc2csc(-c3ccc4c(c3)c(C(=O)N/N=C/c3ccc5c(c3)OCO5)cn4C)n2)CC1,879,–
CCn1cc(NC(=O)OCc2ccc(F)c(F)c2)c2cc(-c3nc(CN4CCC(O)CC4)cs3)ccc21,1.01,Activity [2]: Active; Activity [3]: Active; Activity [4]: 3.85 a.u.; Activity [5]: 3.37 a.u.; inhibition [6]: Dose-dependent effect; Activity_index [7]: 4.66; Activity [8]: Active; Activity_index [9]: 3.2; Activity [10]: Dose-dependent effect
CCn1cc(C(=O)N/N=C/c2ccc(F)cc2)c2cc(-c3nc(CN4CCOCC4)cs3)ccc21,1370,–
CCn1cc(C(=O)N/N=C/c2ccc(OC)cc2)c2cc(-c3nc(CN4CCOCC4)cs3)ccc21,> 10000,–
C/C(=N\NC(=O)c1cn(C)c2ccc(-c3nc(CN4CCN(C)CC4)cs3)cc12)c1ccc(F)cc1,> 10000,–
CCn1cc(C(=O)N/N=C/c2ccc(F)cc2)c2cc(-c3nc(CN4CCC(O)CC4)cs3)ccc21,906,–
CCn1cc(NC(=O)OCc2ccc3c(c2)OCO3)c2cc(-c3nc(CN4CCC(O)CC4)cs3)ccc21,34.1,–
CCc1nc2c(C)cc(N3CCN(CC(=O)N4CC(O)C4)CC3)cn2c1N(C)c1nc(-c2ccc(F)cc2)c(C#N)s1 [ZIRITAXESTAT],–,Activity [2]: Active; Activity [5]: 4.03 a.u.; Activity [11]: Active
CCn1cc(NC(=O)OCc2ccc3c(c2)OCO3)c2cc(-c3nc(CN(CCO)CCO)cs3)ccc21,30.7,–
CCn1cc(C(=O)N/N=C(\C)c2ccc(F)cc2)c2cc(-c3nc(CN4CCN(C)CC4)cs3)ccc21,2530,–
CCn1cc(NC(=O)O[C@H](C)c2ccc(C)cc2)c2cc(-c3nc(CN4CCC[C@H]4CO)cs3)ccc21,36.9,–
CCn1cc(NC(=O)OCc2ccc3c(c2)OCO3)c2cc(-c3nc(CN4CCC[C@H]4CO)cs3)ccc21,34.7,–
CCn1cc(NC(=O)OCc2ccccc2)c2cc(-c3nc(CN4CCC[C@H]4CO)cs3)ccc21,122,–
CCn1cc(NC(=O)OCc2cc(Cl)cc(Cl)c2)c2cc(-c3nc(CN(CCO)CCO)cs3)ccc21,21.3,–
Cn1cc(C(=O)N/N=C/c2ccc(Cl)cc2)c2cc(-c3nc(CN4CCOCC4)cs3)ccc21,> 10000,–
CCn1cc(C(=O)N/N=C/c2ccc3c(c2)OCO3)c2cc(-c3nc(CN4CCC(O)CC4)cs3)ccc21,107,–
CCn1cc(NC(=O)OCc2cccc(Cl)c2Cl)c2cc(-c3nc(CN4CCN(CCO)CC4)cs3)ccc21,62.7,–
Cn1cc(C(=O)N/N=C/c2ccc3c(c2)OCO3)c2cc(-c3nc(CN4CCOCC4)cs3)ccc21,> 10000,–
CCn1cc(NC(=O)OCc2ccc(F)c(F)c2)c2cc(-c3nc(CN4CCC[C@H]4CO)cs3)ccc21,297,–
CCn1cc(C(=O)N/N=C/c2ccc(Cl)cc2)c2cc(-c3nc(CN4CCCC4)cs3)ccc21,1170,–
CCn1cc(C(=O)N/N=C/c2ccc3c(c2)OCO3)c2cc(-c3nc(CN4CCN(C)CC4)cs3)ccc21,757,–
CCn1cc(C(=O)N/N=C(\C)c2ccc(F)cc2)c2cc(-c3nc(CN4CCC[C@H]4CO)cs3)ccc21,15.7,–

Structure (SMILES),IC50 [1] [nM],other results
CCn1cc(C(=O)N/N=C(\C)c2ccc(F)cc2)c2cc(-c3nc(CN4CCOCC4)cs3)ccc21,1840,–
CCn1cc(C(=O)N/N=C/c2ccc3c(c2)OCO3)c2cc(-c3nc(CN4CCCCC4)cs3)ccc21,1550,–
CCn1cc(C(=O)N/N=C/c2ccc3c(c2)OCO3)c2cc(-c3nc(CN4CCC(C)CC4)cs3)ccc21,> 10000,–
CCn1cc(C(=O)N/N=C/c2ccc3c(c2)OCO3)c2cc(-c3nc(CN4CCOCC4)cs3)ccc21,> 10000,–
CN1CCN(Cc2csc(-c3ccc4c(c3)c(C(=O)N/N=C/c3ccc(F)cc3)cn4C)n2)CC1,5240,–
CCn1cc(C(=O)N/N=C(\C)c2ccc(F)cc2)c2cc(-c3nc(CN4CCN(CCO)CC4)cs3)ccc21,508,–
CCn1cc(NC(=O)OCc2cc(Cl)cc(Cl)c2)c2cc(-c3nc(CN4CCN(CCO)CC4)cs3)ccc21,0.43,Activity [2]: Active; Activity [3]: Active; Activity [4]: 3.43 a.u.; Activity [5]: 3.25 a.u.; inhibition [6]: Dose-dependent effect; Activity [8]: Active; Activity_index [9]: 2.04; Activity_index [12]: 2.01
CCn1cc(C(=O)N/N=C/c2ccc(Cl)cc2)c2cc(-c3nc(CN4CCC(O)CC4)cs3)ccc21,180,–
CCCC[C@@H](CCCC(=O)NO)NC(=O)CCCCC(=O)Nc1ccccc1,–,IC50 [13]: 60 nM
CCn1cc(NC(=O)O[C@H](C)c2ccc(C)cc2)c2cc(-c3nc(CN4CCC(O)CC4)cs3)ccc21,117,–
CCn1cc(NC(=O)O[C@H](C)c2ccccc2Cl)c2cc(-c3nc(CN4CCC(O)CC4)cs3)ccc21,210,–
CCn1cc(NC(=O)OCc2ccccc2)c2cc(-c3nc(CN4CCC(O)CC4)cs3)ccc21,970,–
CCn1cc(C(=O)N/N=C/c2ccc(Cl)cc2)c2cc(-c3nc(CN4CCN(CCO)CC4)cs3)ccc21,231,–
CCn1cc(C(=O)N/N=C/c2ccc(F)cc2)c2cc(-c3nc(CN4CCN(CCO)CC4)cs3)ccc21,135,–
CCN1CCN(Cc2csc(-c3ccc4c(c3)c(C(=O)N/N=C/c3ccc(Cl)cc3)cn4CC)n2)CC1,2310,–
CCn1cc(C(=O)N/N=C/c2ccc(F)cc2)c2cc(-c3nc(CN4CCC[C@H]4CO)cs3)ccc21,655,–
CCn1cc(NC(=O)OCc2cccc(Cl)c2Cl)c2cc(-c3nc(CN4CCC(O)CC4)cs3)ccc21,127,–
CCn1cc(C(=O)N/N=C/c2ccc(F)cc2)c2cc(-c3nc(CN4CCCCC4)cs3)ccc21,3960,–
CCN1CCN(Cc2csc(-c3ccc4c(c3)c(C(=O)N/N=C(\C)c3ccc(F)cc3)cn4CC)n2)CC1,1590,–
CCn1cc(C(=O)N/N=C/c2ccc(F)cc2)c2cc(-c3nc(CN4CCC(C)CC4)cs3)ccc21,> 10000,–
CCn1cc(C(=O)N/N=C/c2ccc3c(c2)OCO3)c2cc(-c3nc(CN4CCN(CCO)CC4)cs3)ccc21,1320,–
CN(C)Cc1csc(-c2ccc3[nH]cc(C(=O)O)c3c2)n1,740,–
CCn1cc(C(=O)N/N=C/c2ccc(OC)cc2)c2cc(-c3nc(CN4CCCCC4)cs3)ccc21,1460,–
CCn1cc(NC(=O)OCc2cc(Cl)cc(Cl)c2)c2cc(-c3nc(CN4CCC(O)CC4)cs3)ccc21,613,–
CCn1cc(C(=O)N/N=C(\C)c2ccc(F)cc2)c2cc(-c3nc(CN4CCCC4)cs3)ccc21,2740,–
CCN1CCN(Cc2csc(-c3ccc4c(c3)c(C(=O)N/N=C/c3ccc(F)cc3)cn4CC)n2)CC1,1350,–
